Reference: the supplement of paper PMC10307832

Experiments:
Assay in all cases: relative viability (nuclei count vs DMSO), 5 days (fraction); higher = more cells survive
NCI-H2009 = system: NCI-H2009
In short: (§1)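 Nuclei were stained with Hoechst during a one-step fixation (final 0.05% Triton X-100, 1% formaldehyde, 1 ug/ml Hoechst) carried out 5 days after dosing, then counted on 4× images. The cells, lung cancer lines in 1536-well plates, had been dosed by pin tool the day after seeding with one drug alone or a fixed anchor-drug dose plus five library-drug doses (not always all listed) in √10 steps. Relative viability is the nuclei count in treated wells divided by that in vehicle wells, and each value is the median of duplicate plates.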

NCI-H1355 = system: NCI-H1355
In short: as §1

PC-3 [JPC-3] = system: PC-3 [JPC-3]
In short: as §1

NCI-H460 = system: NCI-H460
In short: as §1

NCI-H727 = system: NCI-H727
In short: as §1

ABC-1 = system: ABC-1
In short: as §1

NCI-H520 = system: NCI-H520
In short: as §1

PC-14 = system: PC-14
In short: as §1

NCI-H1975 = system: NCI-H1975
In short: as §1

NCI-H2126 = system: NCI-H2126
In short: as §1

NCI-H1993 = system: NCI-H1993
In short: as §1

NCI-H2347 = system: NCI-H2347
In short: as §1

NCI-H647 = system: NCI-H647
In short: as §1

NCI-H1666 = system: NCI-H1666
In short: as §1

SK-LU-1 = system: SK-LU-1
In short: as §1

NCI-H441 = system: NCI-H441
In short: as §1

LCLC-97TM1 = system: LCLC-97TM1
In short: as §1

SW 1573 = system: SW 1573
In short: as §1

EMC-BAC-2 = system: EMC-BAC-2
In short: as §1

NCI-H1755 = system: NCI-H1755
In short: as §1

## O=c1[nH]c2ccccc2n1C1CCN(CCCC(c2ccc(F)cc2)c2ccc(F)cc2)CC1 [Pimozide] + CC(C)C[C@H](NC(=O)[C@H](Cc1ccccc1)NC(=O)c1cnccn1)B(O)O [Bortezomib] (partner 0.002 µM)
NCI-H2009; first compound 0.08 µM
  relative viability: 0.999
NCI-H2009; first compound 0.253 µM
  relative viability: 0.999
NCI-H2009; first compound 0.8 µM
  relative viability: 0.879
NCI-H2009; first compound 2.53 µM
  relative viability: 0.888
NCI-H2009; first compound 8 µM
  relative viability: 0.769
NCI-H1355; first compound 0.08 µM
  relative viability: 1.18
NCI-H1355; first compound 0.253 µM
  relative viability: 1.2
NCI-H1355; first compound 0.8 µM
  relative viability: 1.05
NCI-H1355; first compound 2.53 µM
  relative viability: 1.19
NCI-H1355; first compound 8 µM
  relative viability: 1.19
PC-3 [JPC-3]; first compound 0.253 µM
  relative viability: 0.803
PC-3 [JPC-3]; first compound 0.8 µM
  relative viability: 0.726
PC-3 [JPC-3]; first compound 2.53 µM
  relative viability: 0.884
PC-3 [JPC-3]; first compound 8 µM
  relative viability: 0.667
NCI-H460; first compound 0.08 µM
  relative viability: 1.09
NCI-H460; first compound 0.253 µM
  relative viability: 0.933
NCI-H460; first compound 0.8 µM
  relative viability: 0.992
NCI-H460; first compound 2.53 µM
  relative viability: 0.993
NCI-H460; first compound 8 µM
  relative viability: 1.04
NCI-H727; first compound 0.08 µM
  relative viability: 0.729
NCI-H727; first compound 0.253 µM
  relative viability: 0.788
NCI-H727; first compound 0.8 µM
  relative viability: 0.884
NCI-H727; first compound 2.53 µM
  relative viability: 0.733
NCI-H727; first compound 8 µM
  relative viability: 0.868
ABC-1; first compound 0.08 µM
  relative viability: 0.289
ABC-1; first compound 0.253 µM
  relative viability: 0.284
ABC-1; first compound 0.8 µM
  relative viability: 0.34
ABC-1; first compound 2.53 µM
  relative viability: 0.227
ABC-1; first compound 8 µM
  relative viability: 0.26
NCI-H520; first compound 0.08 µM
  relative viability: 0.386
NCI-H520; first compound 0.253 µM
  relative viability: 0.538
NCI-H520; first compound 0.8 µM
  relative viability: 0.556
NCI-H520; first compound 2.53 µM
  relative viability: 0.437
NCI-H520; first compound 8 µM
  relative viability: 0.649
PC-14; first compound 0.08 µM
  relative viability: 0.855
PC-14; first compound 0.253 µM
  relative viability: 0.812
PC-14; first compound 0.8 µM
  relative viability: 0.844
PC-14; first compound 2.53 µM
  relative viability: 0.912
PC-14; first compound 8 µM
  relative viability: 0.81
NCI-H1975; first compound 0.08 µM
  relative viability: 0.338
NCI-H1975; first compound 0.253 µM
  relative viability: 0.39
NCI-H1975; first compound 0.8 µM
  relative viability: 0.398
NCI-H1975; first compound 2.53 µM
  relative viability: 0.337
NCI-H1975; first compound 8 µM
  relative viability: 0.355
NCI-H2126; first compound 0.08 µM
  relative viability: 1.14
NCI-H2126; first compound 0.253 µM
  relative viability: 1.1
NCI-H2126; first compound 0.8 µM
  relative viability: 1.1
NCI-H2126; first compound 2.53 µM
  relative viability: 1.11
NCI-H2126; first compound 8 µM
  relative viability: 1.05
NCI-H1993; first compound 0.08 µM
  relative viability: 0.89
NCI-H1993; first compound 0.253 µM
  relative viability: 1.03
NCI-H1993; first compound 0.8 µM
  relative viability: 0.986
NCI-H1993; first compound 2.53 µM
  relative viability: 1.07
NCI-H1993; first compound 8 µM
  relative viability: 1.01
NCI-H2347; first compound 0.08 µM
  relative viability: 1
NCI-H2347; first compound 0.253 µM
  relative viability: 0.858
NCI-H2347; first compound 0.8 µM
  relative viability: 0.748
NCI-H2347; first compound 2.53 µM
  relative viability: 0.955
NCI-H2347; first compound 8 µM
  relative viability: 0.883
NCI-H647; first compound 0.08 µM
  relative viability: 1.08
NCI-H647; first compound 0.253 µM
  relative viability: 0.855
NCI-H647; first compound 0.8 µM
  relative viability: 0.851
NCI-H647; first compound 2.53 µM
  relative viability: 0.944
NCI-H647; first compound 8 µM
  relative viability: 0.529
NCI-H1666; first compound 0.08 µM
  relative viability: 0.823
NCI-H1666; first compound 0.253 µM
  relative viability: 0.744
NCI-H1666; first compound 0.8 µM
  relative viability: 0.761
NCI-H1666; first compound 2.53 µM
  relative viability: 0.7
NCI-H1666; first compound 8 µM
  relative viability: 0.626
SK-LU-1; first compound 0.08 µM
  relative viability: 1.09
SK-LU-1; first compound 0.253 µM
  relative viability: 1.21
SK-LU-1; first compound 0.8 µM
  relative viability: 0.741
SK-LU-1; first compound 2.53 µM
  relative viability: 0.899
SK-LU-1; first compound 8 µM
  relative viability: 1.11
NCI-H441; first compound 0.08 µM
  relative viability: 0.692
NCI-H441; first compound 0.253 µM
  relative viability: 0.366
NCI-H441; first compound 0.8 µM
  relative viability: 0.325
NCI-H441; first compound 2.53 µM
  relative viability: 0.451
NCI-H441; first compound 8 µM
  relative viability: 0.336
LCLC-97TM1; first compound 0.08 µM
  relative viability: 0.526
LCLC-97TM1; first compound 0.253 µM
  relative viability: 0.637
LCLC-97TM1; first compound 0.8 µM
  relative viability: 0.574
LCLC-97TM1; first compound 2.53 µM
  relative viability: 0.353
LCLC-97TM1; first compound 8 µM
  relative viability: 0.616
SW 1573; first compound 0.08 µM
  relative viability: 1.09
SW 1573; first compound 0.253 µM
  relative viability: 1.02
SW 1573; first compound 0.8 µM
  relative viability: 0.898
SW 1573; first compound 2.53 µM
  relative viability: 0.894
SW 1573; first compound 8 µM
  relative viability: 0.963
EMC-BAC-2; first compound 0.08 µM
  relative viability: 0.992
EMC-BAC-2; first compound 0.253 µM
  relative viability: 1.03
EMC-BAC-2; first compound 0.8 µM
  relative viability: 0.972
EMC-BAC-2; first compound 2.53 µM
  relative viability: 1.04
EMC-BAC-2; first compound 8 µM
  relative viability: 1.05
NCI-H1755; first compound 0.08 µM
  relative viability: 0.881
NCI-H1755; first compound 0.253 µM
  relative viability: 0.91
NCI-H1755; first compound 0.8 µM
  relative viability: 0.844
NCI-H1755; first compound 2.53 µM
  relative viability: 0.937
NCI-H1755; first compound 8 µM
  relative viability: 0.674
